According to US10206937B2, “Boronic acid derivatives and therapeutic uses thereof” (Qpex Biopharma, Inc., priority 2014, dated 2019):

System: strains of Enterobacteriaceae producing various carbapenemases (class A, D and B; 169 strains)
Assay: Meropenem or tebipenem potentiation by Compounds 97 or 62 (MIC)
Type: cell-based
In short: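 Meropenem and tebipenem MICs measured alone or with Compound 97 or 62 held at a fixed 8 μg/ml in the growth medium. Panel of 169 clinical Enterobacteriaceae isolates expressing class A, D and B carbapenemases, alone or with other beta-lactamases.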

## C[C@@H](O)[C@H]1C(=O)N2C(C(=O)O)=C(SC3CN(C4=NCCS4)C3)[C@H](C)[C@H]12 [T]
KP1182 Klebsiella pneumoniae SHV-OSBL(2b), NDM-1, OXA-232(c)
  Tebipenem MIC alone (T): Z (MIC of greater than 10 μg/mL)
KP1183 Klebsiella pneumoniae SHV-OSBL(2b), TEM-OSBL(2b), CTX-M-15, NDM-1
  Tebipenem MIC alone (T): Z (MIC of greater than 10 μg/mL)
KP1184 Klebsiella pneumoniae SHV-OSBL(2b), IMP-1
  Tebipenem MIC alone (T): Y (MIC of 1 μg/mL to 10 μg/mL)
KP1185 Klebsiella pneumoniae SHV-OSBL(2b), TEM-OSBL(2b), IMP-4
  Tebipenem MIC alone (T): Z (MIC of greater than 10 μg/mL)
KP1186 Klebsiella pneumoniae CTX-M-15, NDM-1
  Tebipenem MIC alone (T): Z (MIC of greater than 10 μg/mL)
KP1187 Klebsiella pneumoniae SHV-55(2be), TEM-OSBL(2b), CTX-M-15, NDM-1
  Tebipenem MIC alone (T): Z (MIC of greater than 10 μg/mL)
KP1188 Klebsiella pneumoniae SHV-OSBL(2b), CTX-M-15, NDM-1
  Tebipenem MIC alone (T): Z (MIC of greater than 10 μg/mL)
KP1189 Klebsiella pneumoniae TEM-OSBL(2b), CTX-M-15, CTX-M-27, NDM-1
  Tebipenem MIC alone (T): Z (MIC of greater than 10 μg/mL)
KP1190 Klebsiella pneumoniae KPC-4 VIM-4 TEM SHV
  Tebipenem MIC alone (T): Z (MIC of greater than 10 μg/mL)
KP1191 Klebsiella pneumoniae KPC-2
  Tebipenem MIC alone (T): Z (MIC of greater than 10 μg/mL)
KP1192 Klebsiella pneumoniae KPC-2 TEM SHV
  Tebipenem MIC alone (T): Z (MIC of greater than 10 μg/mL)
KP1193 Klebsiella pneumoniae KPC-3 TEM SHV
  Tebipenem MIC alone (T): Z (MIC of greater than 10 μg/mL)
KP1194 Klebsiella pneumoniae KPC TEM SHV
  Tebipenem MIC alone (T): Z (MIC of greater than 10 μg/mL)
KP1195 Klebsiella pneumoniae KPC TEM CTX-M-15
  Tebipenem MIC alone (T): Z (MIC of greater than 10 μg/mL)
KP1196 Klebsiella pneumoniae KPC TEM SHV CTX-M-15 CMY
  Tebipenem MIC alone (T): Z (MIC of greater than 10 μg/mL)
KP1197 Klebsiella pneumoniae KPC-3, VIM-1 TEM SHV
  Tebipenem MIC alone (T): Z (MIC of greater than 10 μg/mL)
KP1198 Klebsiella pneumoniae KPC-3, VIM-1 TEM SHV
  Tebipenem MIC alone (T): Z (MIC of greater than 10 μg/mL)
KP1199 Klebsiella pneumoniae KPC-3 TEM SHV
  Tebipenem MIC alone (T): Z (MIC of greater than 10 μg/mL)
KP1200 Klebsiella pneumoniae KPC-3 TEM SHV
  Tebipenem MIC alone (T): Z (MIC of greater than 10 μg/mL)
KP1210 Klebsiella pneumoniae KPC SHV TEM
  Tebipenem MIC alone (T): Z (MIC of greater than 10 μg/mL)
KP1211 Klebsiella pneumoniae KPC SHV TEM CTX-M-15
  Tebipenem MIC alone (T): Z (MIC of greater than 10 μg/mL)
KP1212 Klebsiella pneumoniae KPC SHV TEM CTX-M-15
  Tebipenem MIC alone (T): Z (MIC of greater than 10 μg/mL)
KP1213 Klebsiella pneumoniae KPC SHV TEM CTX-M-15
  Tebipenem MIC alone (T): Z (MIC of greater than 10 μg/mL)
KP1214 Klebsiella pneumoniae KPC SHV TEM + 1.9 kb
  Tebipenem MIC alone (T): Z (MIC of greater than 10 μg/mL)
KP1215 Klebsiella pneumoniae KPC SHV
  Tebipenem MIC alone (T): Z (MIC of greater than 10 μg/mL)
KP1216 Klebsiella pneumoniae KPC SHV TEM + 1.9 kb
  Tebipenem MIC alone (T): Z (MIC of greater than 10 μg/mL)
KP1217 Klebsiella pneumoniae KPC SHV TEM + 1.9 kb
  Tebipenem MIC alone (T): Z (MIC of greater than 10 μg/mL)
KP1218 Klebsiella pneumoniae KPC SHV TEM + 1.9 kb
  Tebipenem MIC alone (T): Z (MIC of greater than 10 μg/mL)
KP1219 Klebsiella pneumoniae KPC SHV TEM + 1.9 kb
  Tebipenem MIC alone (T): Z (MIC of greater than 10 μg/mL)
KP1220 Klebsiella pneumoniae KPC SHV TEM + 1.9 kb
  Tebipenem MIC alone (T): Z (MIC of greater than 10 μg/mL)
KP1221 Klebsiella pneumoniae KPC SHV TEM + 1.9 kb
  Tebipenem MIC alone (T): Z (MIC of greater than 10 μg/mL)
KP1222 Klebsiella pneumoniae KPC SHV TEM IMP
  Tebipenem MIC alone (T): Z (MIC of greater than 10 μg/mL)
KP1223 Klebsiella pneumoniae KPC SHV TEM
  Tebipenem MIC alone (T): Z (MIC of greater than 10 μg/mL)
KP1224 Klebsiella pneumoniae KPC SHV TEM
  Tebipenem MIC alone (T): Z (MIC of greater than 10 μg/mL)
KP1225 Klebsiella pneumoniae KPC SHV TEM + 1.9 kb CMY
  Tebipenem MIC alone (T): Z (MIC of greater than 10 μg/mL)
KP1226 Klebsiella pneumoniae KPC SHV TEM + 1.9 kb
  Tebipenem MIC alone (T): Z (MIC of greater than 10 μg/mL)
KP1227 Klebsiella pneumoniae KPC SHV TEM CTX-M-15
  Tebipenem MIC alone (T): Z (MIC of greater than 10 μg/mL)
KP1228 Klebsiella pneumoniae OXA-48 TEM SHV CTX-M-15
  Tebipenem MIC alone (T): Y (MIC of 1 μg/mL to 10 μg/mL)
KP1229 Klebsiella pneumoniae OXA-48 TEM SHV CTX-M-15
  Tebipenem MIC alone (T): Z (MIC of greater than 10 μg/mL)
KP1230 Klebsiella pneumoniae OXA-48 TEM SHV CTX-M-15
  Tebipenem MIC alone (T): Y (MIC of 1 μg/mL to 10 μg/mL)
KP1231 Klebsiella pneumoniae OXA-48 TEM SHV CTX-M-15
  Tebipenem MIC alone (T): Y (MIC of 1 μg/mL to 10 μg/mL)
KP1232 Klebsiella pneumoniae OXA-48 TEM SHV CTX-M-15
  Tebipenem MIC alone (T): Z (MIC of greater than 10 μg/mL)
KP1234 Klebsiella pneumoniae OXA-48 TEM SHV CTX-M-15
  Tebipenem MIC alone (T): Z (MIC of greater than 10 μg/mL)
KP1236 Klebsiella pneumoniae OXA-48 TEM SHV CTX-M-15
  Tebipenem MIC alone (T): Z (MIC of greater than 10 μg/mL)
PM1024 Proteus mirabilis TEM-1(2b), CMY-16, VIM-1
  Tebipenem MIC alone (T): Z (MIC of greater than 10 μg/mL)
PM1025 Proteus mirabilis SHV-5(2be), TEM-OSBL(2b), VEB-2, VIM-1
  Tebipenem MIC alone (T): Y (MIC of 1 μg/mL to 10 μg/mL)
PM1026 Proteus mirabilis DHA-1, IMP-26
  Tebipenem MIC alone (T): Y (MIC of 1 μg/mL to 10 μg/mL)
PM1027 Proteus mirabilis VIM-5
  Tebipenem MIC alone (T): Z (MIC of greater than 10 μg/mL)
SM1023 Serratia marcescens VIM-4
  Tebipenem MIC alone (T): Z (MIC of greater than 10 μg/mL)
SM1024 Serratia marcescens TEM-1(2b), IMP-47
  Tebipenem MIC alone (T): Y (MIC of 1 μg/mL to 10 μg/mL)
